{
  "source": "paper PMC6251916",
  "about": "“CKD-506, a novel HDAC6-selective inhibitor, improves renal outcomes and survival in a mouse model of systemic lupus erythematosus” (Scientific Reports, 2018)",
  "key": {"NZB/W F1 female mice [1]": {"test_system": "NZB/W F1 female mice", "experiment": "Murine SLE model: serum cytokine levels (Milliplex)", "format": "in vivo, mouse", "details": "for Serum GM-CSF / Serum IFN-γ / Serum IL-1α / Serum IL-1β / Serum IL-2 / Serum IL-4 / Serum IL-6 / Serum IL-10 / Serum IL-12(70) / Serum IL-15 / Serum IL-17 / Serum IL-22 / Serum IL-23 / Serum TGF-β1 / Serum TNF-α: at autopsy, mean ± SD", "procedure": "Serum samples were assayed using Milliplex® MAP Kits (Millipore) for granulocyte macrophage-colony stimulating factor (GM-CSF), interferon-γ (IFN-γ), interleukin-1α (IL-1α), IL-1β, IL-10, IL-12(p70), IL-15, IL-17a, IL-2, IL-4, IL-6, tumor necrosis factor α (TNF-α), transforming growth factor beta 1 (TGF-β1), IL-22, IL-23, IFN-inducible protein 10 (IP-10 (CXCL10)) and chemokine (C-C motif) ligand 2 (CCL2 (MCP-1))."}, "NZB/W F1 female mice [2]": {"test_system": "NZB/W F1 female mice", "experiment": "Murine SLE model: kidney histopathology (H&E, PAS, Masson trichrome)", "format": "in vivo, mouse", "details": "group CKD10", "source_text": "Survival had been monitored until 42 weeks of age.\nKidneys were harvested from mice at the end of the study (at 43–44 weeks of age). For light microscopy, the tissues were fixed in 10% neutral buffered formalin, embedded in paraffin wax, sectioned at a thickness of 5 μm and stained with H&E (BBC Biochemical, Mount Vernon, WA, USA). Periodic acid/Schiff (PAS stain kit, BBC Biochemical) staining and Masson trichrome (BBC Biochemical) staining were used for the detection of […] and fibrosis, respectively. Inflammatory cell infiltration and mesangial proliferation were scored on a 4-point scale as 0 (none), 1+ (mild), 2+ (moderate), 3+ (moderate to severe) and 4+ (severe)."}, "[3]": {"details": "group D: CKD-506 10 mg/kg/day, n = 10"}, "[4]": {"details": "group E: CKD-506 30 mg/kg/day, n = 14"}},
  "data": [
    {"substance": "CKD-506", "values": [
      {"measurement": "serum levels of IP-10 vs vehicle", "setting": "NZB/W F1 female mice [1]; group CKD50, 36 weeks of age", "result": "significantly lower"},
      {"measurement": "Mean serum levels of CCL2 vs vehicle", "setting": "NZB/W F1 female mice [1]; group CKD50, 36 weeks of age, difference not statistically significant", "result": "lower"},
      {"measurement": "Serum GM-CSF", "setting": "NZB/W F1 female mice [1]; [3]", "result": "2.65 ± 8.38", "unit": "pg/mL"},
      {"measurement": "Serum IFN-γ", "setting": "NZB/W F1 female mice [1]; [3]", "result": "1.06 ± 3.34", "unit": "pg/mL"},
      {"measurement": "Serum IL-1α", "setting": "NZB/W F1 female mice [1]; [3]", "result": "371.96 ± 261.58", "unit": "pg/mL"},
      {"measurement": "Serum IL-1β", "setting": "NZB/W F1 female mice [1]; [3]", "result": "1.27 ± 2.04", "unit": "pg/mL"},
      {"measurement": "Serum IL-2", "setting": "NZB/W F1 female mice [1]; [3]", "result": "1.91 ± 5.61", "unit": "pg/mL"},
      {"measurement": "Serum IL-4", "setting": "NZB/W F1 female mice [1]; [3]", "result": "1.74 ± 0.60", "unit": "pg/mL"},
      {"measurement": "Serum IL-6", "setting": "NZB/W F1 female mice [1]; [3]", "result": "7.21 ± 7.41", "unit": "pg/mL"},
      {"measurement": "Serum IL-10", "setting": "NZB/W F1 female mice [1]; [3]", "result": "25.00 ± 25.33", "unit": "pg/mL"},
      {"measurement": "Serum IL-12(70)", "setting": "NZB/W F1 female mice [1]; [3]", "result": "1.94 ± 3.69", "unit": "pg/mL"},
      {"measurement": "Serum IL-15", "setting": "NZB/W F1 female mice [1]; [3]", "result": "184.36 ± 280.13", "unit": "pg/mL"},
      {"measurement": "Serum IL-17", "setting": "NZB/W F1 female mice [1]; [3]", "result": "10.40 ± 12.20", "unit": "pg/mL"},
      {"measurement": "Serum IL-22", "setting": "NZB/W F1 female mice [1]; [3]", "result": "27.05 ± 31.48", "unit": "pg/mL"},
      {"measurement": "Serum IL-23", "setting": "NZB/W F1 female mice [1]; [3]", "result": "1.96 ± 6.20", "unit": "pg/mL"},
      {"measurement": "Serum TGF-β1", "setting": "NZB/W F1 female mice [1]; [3]", "result": "73356.45 ± 22951.98", "unit": "pg/mL"},
      {"measurement": "Serum TNF-α", "setting": "NZB/W F1 female mice [1]; [3]", "result": "7.91 ± 8.45", "unit": "pg/mL"},
      {"measurement": "Serum GM-CSF", "setting": "NZB/W F1 female mice [1]; [4]", "result": "5.32 ± 15.20", "unit": "pg/mL"},
      {"measurement": "Serum IFN-γ", "setting": "NZB/W F1 female mice [1]; [4]", "result": "6.60 ± 15.24", "unit": "pg/mL"},
      {"measurement": "Serum IL-1α", "setting": "NZB/W F1 female mice [1]; [4]", "result": "458.40 ± 339.71", "unit": "pg/mL"},
      {"measurement": "Serum IL-1β", "setting": "NZB/W F1 female mice [1]; [4]", "result": "74.66 ± 264.02", "unit": "pg/mL"},
      {"measurement": "Serum IL-2", "setting": "NZB/W F1 female mice [1]; [4]", "result": "9.32 ± 17.79", "unit": "pg/mL"},
      {"measurement": "Serum IL-4", "setting": "NZB/W F1 female mice [1]; [4]", "result": "8.60 ± 25.44", "unit": "pg/mL"},
      {"measurement": "Serum IL-6", "setting": "NZB/W F1 female mice [1]; [4]", "result": "21.23 ± 50.94", "unit": "pg/mL"},
      {"measurement": "Serum IL-10", "setting": "NZB/W F1 female mice [1]; [4]", "result": "56.55 ± 146.53", "unit": "pg/mL"},
      {"measurement": "Serum IL-12(70)", "setting": "NZB/W F1 female mice [1]; [4]", "result": "74.50 ± 238.09", "unit": "pg/mL"},
      {"measurement": "Serum IL-15", "setting": "NZB/W F1 female mice [1]; [4]", "result": "162.41 ± 200.63", "unit": "pg/mL"},
      {"measurement": "Serum IL-17", "setting": "NZB/W F1 female mice [1]; [4]", "result": "21.14 ± 54.60", "unit": "pg/mL"},
      {"measurement": "Serum IL-22", "setting": "NZB/W F1 female mice [1]; [4]", "result": "13.00 ± 16.48", "unit": "pg/mL"},
      {"measurement": "Serum IL-23", "setting": "NZB/W F1 female mice [1]; [4]", "result": "100.56 ± 376.25", "unit": "pg/mL"},
      {"measurement": "Serum TGF-β1", "setting": "NZB/W F1 female mice [1]; [4]", "result": "58807.36 ± 25015.67", "unit": "pg/mL"},
      {"measurement": "Serum TNF-α", "setting": "NZB/W F1 female mice [1]; [4]", "result": "16.25 ± 50.35", "unit": "pg/mL"},
      {"measurement": "Serum GM-CSF", "setting": "NZB/W F1 female mice [1]; group F: 50 mg/kg/day, n = 14", "result": "1.89 ± 7.09", "unit": "pg/mL"},
      {"measurement": "Serum IFN-γ", "setting": "NZB/W F1 female mice [1]; group F: 50 mg/kg/day, n = 14", "result": "2.07 ± 5.38", "unit": "pg/mL"},
      {"measurement": "Serum IL-1α", "setting": "NZB/W F1 female mice [1]; group F: 50 mg/kg/day, n = 14", "result": "629.16 ± 480.71", "unit": "pg/mL"},
      {"measurement": "Serum IL-1β", "setting": "NZB/W F1 female mice [1]; group F: 50 mg/kg/day, n = 14", "result": "3.86 ± 7.83", "unit": "pg/mL"},
      {"measurement": "Serum IL-2", "setting": "NZB/W F1 female mice [1]; group F: 50 mg/kg/day, n = 14", "result": "4.09 ± 9.84", "unit": "pg/mL"},
      {"measurement": "Serum IL-4", "setting": "NZB/W F1 female mice [1]; group F: 50 mg/kg/day, n = 14", "result": "3.70 ± 6.48", "unit": "pg/mL"},
      {"measurement": "Serum IL-6", "setting": "NZB/W F1 female mice [1]; group F: 50 mg/kg/day, n = 14", "result": "5.69 ± 8.94", "unit": "pg/mL"},
      {"measurement": "Serum IL-10", "setting": "NZB/W F1 female mice [1]; group F: 50 mg/kg/day, n = 14", "result": "8.31 ± 14.15", "unit": "pg/mL"},
      {"measurement": "Serum IL-12(70)", "setting": "NZB/W F1 female mice [1]; group F: 50 mg/kg/day, n = 14", "result": "15.62 ± 45.25", "unit": "pg/mL"},
      {"measurement": "Serum IL-15", "setting": "NZB/W F1 female mice [1]; group F: 50 mg/kg/day, n = 14", "result": "26.24 ± 28.73", "unit": "pg/mL"},
      {"measurement": "Serum IL-17", "setting": "NZB/W F1 female mice [1]; group F: 50 mg/kg/day, n = 14", "result": "4.82 ± 7.15", "unit": "pg/mL"},
      {"measurement": "Serum IL-22", "setting": "NZB/W F1 female mice [1]; group F: 50 mg/kg/day, n = 14", "result": "6.37 ± 5.56", "unit": "pg/mL"},
      {"measurement": "Serum IL-23", "setting": "NZB/W F1 female mice [1]; group F: 50 mg/kg/day, n = 14", "result": "41.34 ± 154.68", "unit": "pg/mL"},
      {"measurement": "Serum TGF-β1", "setting": "NZB/W F1 female mice [1]; group F: 50 mg/kg/day, n = 14", "result": "73110.92 ± 17325.08", "unit": "pg/mL"},
      {"measurement": "Serum TNF-α", "setting": "NZB/W F1 female mice [1]; group F: 50 mg/kg/day, n = 14", "result": "1.24 ± 2.60", "unit": "pg/mL"},
      {"measurement": "Masson's trichrome staining of kidneys", "setting": "NZB/W F1 female mice [2]", "result": "fibrosis"},
      {"measurement": "Periodic acid-Schiff (PAS) staining of kidneys", "setting": "NZB/W F1 female mice [2]", "result": "dilated tubules and casts"},
      {"measurement": "histopathological evaluation of the kidneys (H&E)", "setting": "NZB/W F1 female mice [2]", "result": "Large numbers of inflammatory cell infiltrations and mesangial proliferation"}
    ]}
  ]
}
